Test results: patent US10842794B2, “Use of Sigma-1 receptor agonist compounds” (MTA TÁMOGATOTT KUTATÓCSOPORTOK IRODÁJA, priority 2014, dated 2020)

Experiments:
[1] = tested on: Streptozotocin induced type 1 diabetic rats; assay: Diabetic rat kidney: PAS staining, mesangial matrix expansion; format: in vivo; conditions: fluvoxamine 20 or 2 mg/bwkg/day + NE-100 1 mg/bwkg/day
[2] = tested on: Streptozotocin induced type 1 diabetic rats; assay: Diabetic rat kidney: fibronectin staining; format: in vivo; conditions: fluvoxamine 20 mg/bwkg/day + NE-100 1 mg/bwkg/day
[3] = tested on: rat model of bleomycin-induced lung fibrosis; assay: Rat model of bleomycin induced pulmonary fibrosis: αSMA protein in lung, western blot; format: in vivo; conditions: fluvoxamine 20 mg/bwkg/day + NE-100 1 mg/bwkg/day for three weeks
Method: (Bars represent Mean±SEM, n=6/group).
(§1) For the induction of pulmonary fibrosis male Wistar rats were anesthetized. Bleomycin (5 mg/bwkg in a 300 μl solution of isotonic saline) or 300 μl isotonic saline was administered into the trachea using a 30G needle.
(§2) Animals were randomly divided into 4 groups of 6 rats each as follows (i)—control group was sham operated, received isotonic saline per os daily for 3 weeks, (ii) vehicle treated group: received isotonic saline per os daily for 3 weeks after the induction of lung fibrosis, (iii) fluvoxamine treated group: received fluvoxamine (20 mg/bwkg/day per os for 3 weeks after the induction of lung fibrosis), (iv) fluvoxamine+NE100 treated group: received fluvoxamine (20 mg/bwkg/day; per os) and 1 mg/bwkg/day NE100 (i.p. for 3 weeks after the induction of lung fibrosis. […]
Tissue samples were lysed in buffer containing leupeptin, aprotinin, Triton X-100, Tris-HCl, Ethylene glycol-bis (2-aminoethylether),N,N,N′,N′-tetraacetic-acid, NaF, Phenylmethylsulphonylfluoride and Na-orthovanadate (each substance were purchased from Sigma-Aldrich Co., St. Louis, Mo., USA) and centrifuged to pellet nuclei and large cellular fragments. Protein concentration of the supernatants was determined by Bradford assay (Bio-Rad Laboratories, Hercules, Calif., USA). […] Bands were analyzed with Quantity One software version 4.6.9. […]

[4] = tested on: rat model of bleomycin-induced lung fibrosis; assay: Rat model of bleomycin induced pulmonary fibrosis: Masson trichrome staining of lung; format: in vivo; conditions: fluvoxamine 20 mg/bwkg/day + NE-100 1 mg/bwkg/day for three weeks
Method: Masson trichrome staining of tissue sections was performed Bars represent Mean±SEM, n=6/group). Specifically:
as §1, §2
The stained sections were viewed and photographed with Pannoramic 250 Flash and Pannoramic Viewer 1.15.2 (3D HISTECH Ltd. Budapest, Hungary) Adobe Photoshop 13.0 and Scion Image for Windows software were used for the analysis. […] Finally these ratios were statistically analyzed in all of the treatment groups.

[5] = tested on: NRK49F cells; assay: Cell viability MTT assay in myofibroblasts; format: cell-based, rat; conditions: 24-hours treatment, commonly used doses 1-10 μM
[6] = tested on: Streptozotocin induced type 1 diabetic rats; assay: Diabetic rat kidney: Masson's trichrome staining, tubulointerstitial fibrosis; format: in vivo; conditions: rats treated with 20 mg fluvoxamine + NE-100 1 mg/bwkg/day
[7] = tested on: mice with unilateral ureter obstruction (UUO); assay: Mice model of unilateral ureteral obstruction (UUO): Masson's trichrome, tubulointerstitial fibrosis; format: in vivo; conditions: fluvoxamine 20 mg/bwkg/day + NE-100 1 mg/bwkg/day for one week
[8] = tested on: NRK49F rat kidney interstitial fibroblast cell lines; assay: PDGFB-induced myofibroblast proliferation (MTT); format: cell-based; conditions: for PDGF-induced myofibroblast proliferation: 10 ng/mL PDGFB, 24 hours, different concentrations of agonist
[9] = tested on: Streptozotocin induced type 1 diabetic rats; assay: Diabetic rat kidney: αSMA protein level, western blot; format: in vivo; conditions: diabetic rats, fluvoxamine + NE-100 1 mg/bwkg/day
[10] = tested on: NRK49F myofibroblasts; conditions: all applied concentrations, even the smallest 1 μM
Method: In 6-well plates of NRK49F myofibroblasts (6×10^6 cells/well) TGF-β (1 nM) induced production of fibrillar components of the extracellular matrix was measured by Sirius Red staining. To investigate the effect of S1R agonist compounds a group of cells was treated for 48 hours with the various S1R agonists. Solvent treated cells served as controls. (Bars represent mean±SEM)
To investigate the deposition of fibrillar collagen Sirius Red staining was performed. 48 hours after the treatment with TGF-β and said compounds the NRK-49F cells were incubated for 10 minutes with Kahle fixative solution. 0.1% Sirius Red (Direct Red 80, Sigma-Aldrich) in 1.2% picric acid was added for each well and plates were incubated for 30 minutes at RT. The unconnected dye molecules were washed with distilled water. The bound Sirius Red dye was eluated with 0.1 M NaOH solution, absorbance was recorded at 540 nm in a Hidex Chameleon Microplate Reader (Triathler, Plate Chameleion, 300SL Lablogic Systems, Inc., Brandon, Fla., USA) used MikroWin program. Vehicle treated cells served as controls.

[11] = biological target: PCP receptors; conditions: cited from earlier work
[12] = biological target: S2R (Homo sapiens, UniProt Q5BJF2); conditions: read-out: Ki for σ2 receptors; cited from earlier work
[13] = tested on: Japanese patients with IPF; conditions: 1,800 mg/day, 107 Japanese patients with IPF; cited from earlier work
[14] = tested on: post-AMI left ventricular remodeling / infarct expansion; conditions: cited from earlier work

S2R, sequence (Q5BJF2 whole entry, species assumed): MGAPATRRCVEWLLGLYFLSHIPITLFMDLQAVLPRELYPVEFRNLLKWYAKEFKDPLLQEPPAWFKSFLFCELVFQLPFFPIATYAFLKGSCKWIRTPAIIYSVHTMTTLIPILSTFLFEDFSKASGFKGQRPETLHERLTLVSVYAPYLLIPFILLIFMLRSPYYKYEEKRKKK

CCCN(CCC)CCc1ccc(OC)c(OCCc2ccccc2)c1.Cl [NE-100, 4-Methoxy-3-(2-phenylethoxy)-N,N-dipropylbenzeneethanamine hydrochloride]
effect of NE-100 co-administration on renoprotection of fluvoxamine (mesangial matrix expansion) [1]: prohibited the renoprotection of fluvoxamine | effect of NE-100 on fluvoxamine's effect on fibronectin accumulation [2]: suspended this beneficial effect | effect of NE-100 on fluvoxamine's effect on lung αSMA [3]: suspended the beneficial effect of fluvoxamine | effect of NE-100 on fluvoxamine's effect on lung fibrosis [4]: suspended the effect of fluvoxamine | cytotoxicity / cell viability in myofibroblasts [5]: not cytotoxic | effect of NE-100 co-administration on protective effect of fluvoxamine (tubulointerstitial fibrosis) [6]: inhibited the protective effect of fluvoxamine | effect of NE-100 on fluvoxamine's effect on tubulointerstitial fibrosis after UUO [7]: suspended the beneficial effect of fluvoxamine | effect of NE-100 co-incubation on anti-proliferative effect of fluvoxamine ([8]; NE-100 3 μM with fluvoxamine 10 μM, PDGF-induced): suspended the effect of fluvoxamine | effect of NE-100 co-administration on fluvoxamine's effect on αSMA protein level [9]: suspended

O=C(OCCN1CCOCC1)C1(c2ccccc2)CCCCC1 [PRE-084, 2-morpholin-4-ylethyl 1-phenylcyclohexane-1-carboxylate]
TGFβ-induced ECM production (Sirius Red) [10]: significantly inhibited TGFβ-induced ECM production | IC50 [11]: > 100 µM | Ki [12]: 13.1 µM | cytotoxicity / cell viability in myofibroblasts [5]: not cytotoxic | PDGF-induced myofibroblast proliferation [8]: significantly decreased PDGF-induced myofibroblast proliferation

COc1ccc(CCN2CCN(CCCc3ccccc3)CC2)cc1OC [SA-4503, 1-[2-(3,4-Dimethoxyphenyl)ethyl]-4-(3-phenylpropyl)piperazine]
TGFβ-induced ECM production (Sirius Red) [10]: significantly inhibited TGFβ-induced ECM production | cytotoxicity / cell viability in myofibroblasts [5]: not cytotoxic | PDGF-induced myofibroblast proliferation [8]: significantly decreased PDGF-induced myofibroblast proliferation

Cc1ccc(=O)n(-c2ccccc2)c1 [pirfenidone, 5-Methyl-1-phenylpyridin-2-one]
primary end point, pirfenidone versus placebo [13]: not significantly different between the two groups

COc1ccc(/C=C/C(=O)Nc2ccccc2C(=O)O)cc1OC [tranilast, 2-{[(2E)-3-(3,4-dimethoxyphenyl)prop-2-enoyl]amino}benzoic acid]
left ventricular remodeling ([14]; commencement of treatment delayed to 7 days post-AMI): impeded left ventricular remodeling | infarct expansion ([14]; intervention from 24h post-AMI): exacerbated infarct expansion
